Laboratory results taken from ChEMBL document CHEMBL4706534, “1,2,3-Triazole-containing hybrids with potential antibacterial activity against methicillin-resistant Staphylococcus aureus (MRSA)” (Eur J Med Chem, 2020).
In brackets after ≈: the same amount, converted by molar mass.

What was measured:
[1] = test system: Staphylococcus aureus; assay: Antibacterial activity against Methicillin-resistant Staphylococcus aureus USA300 by CLSI-based microdilution method; format: functional
[2] = test system: Staphylococcus aureus; assay: Antibacterial activity against Methicillin-resistant Staphylococcus aureus USA200 by CLSI-based microdilution method; format: functional
[3] = test system: Staphylococcus aureus; assay: Antibacterial activity against Methicillin-resistant Staphylococcus aureus USA100 by CLSI-based microdilution method; format: functional
[4] = test system: Staphylococcus aureus; assay: Antibacterial activity against Methicillin-resistant Staphylococcus aureus USA600 by CLSI-based microdilution method; format: functional
[5] = test system: Staphylococcus aureus; assay: Antibacterial activity against wild type Methicillin-resistant Staphylococcus aureus by CLSI-based microdilution method; format: functional
[6] = test system: Staphylococcus aureus; assay: Antibacterial activity against Staphylococcus aureus C463 incubated for 18 hrs by CLSI-based two fold agar dilution method; format: functional
[7] = test system: Enterococcus; assay: Antibacterial activity against Vancomycin-resistant enterococcus 1 incubated for 16 hrs by agar dilution method; format: functional
[8] = test system: Enterococcus; assay: Antibacterial activity against Vancomycin-resistant enterococcus 2 incubated for 16 hrs by agar dilution method; format: functional
[9] = test system: Enterococcus faecalis; assay: Antibacterial activity against Enterococcus faecalis; format: functional
[10] = test system: Staphylococcus aureus; assay: Antibacterial activity against methicillin-sensitive Staphylococcus aureus; format: functional
[11] = test system: Enterococcus faecium; assay: Antibacterial activity against Enterococcus faecium; format: functional
[12] = Cytotoxicity against CHO cells; format: cell-based, Cricetulus griseus; conditions: chinese hamster
[13] = test system: Escherichia coli; assay: Antibacterial activity against Escherichia coli; format: functional
[14] = test system: Staphylococcus aureus; assay: Antibacterial activity against methicillin-resistant Staphylococcus aureus; format: functional
[15] = test system: Proteus vulgaris; assay: Antibacterial activity against Proteus vulgaris; format: functional
[16] = test system: Providencia rettgeri; assay: Antibacterial activity against Providencia rettgeri; format: functional
[17] = test system: Staphylococcus epidermidis; assay: Antibacterial activity against methicillin-sensitive Staphylococcus epidermidis; format: functional
[18] = test system: Klebsiella aerogenes; assay: Antibacterial activity against Enterobacter aerogenes; format: functional
[19] = test system: Enterobacter cloacae; assay: Antibacterial activity against Enterobacter cloacae; format: functional
[20] = test system: Klebsiella pneumoniae; assay: Antibacterial activity against Klebsiella pneumoniae; format: functional
[21] = test system: Staphylococcus aureus; assay: Bactericidal activity against methicillin-resistant Staphylococcus aureus ATCC 33591 measured after 20 hrs; format: functional
[22] = test system: Staphylococcus aureus; assay: Antibacterial activity against Methicillin-resistant Staphylococcus aureus ATCC 33591 incubated for 20 hrs by broth two-fold dilution method; format: functional
[23] = test system: Staphylococcus aureus; assay: Resistance index, ratio of MIC for antibacterial activity against Staphylococcus aureus ATCC 43300 incubated for 18 hrs to MIC for antibacterial activity against Staphylococcus aureus ATCC 25923 incubated for 18 hrs; format: functional
[24] = test system: Staphylococcus aureus; assay: Antibacterial activity against methicillin-resistant Staphylococcus aureus ATCC 43300 incubated for 18 hrs; format: functional
[25] = test system: Staphylococcus aureus; assay: Antibacterial activity against Methicillin-resistant Staphylococcus aureus 1 incubated for 16 hrs by agar dilution method; format: functional
[26] = test system: Staphylococcus aureus; assay: Antibacterial activity against Methicillin-resistant Staphylococcus aureus 2 incubated for 16 hrs by agar dilution method; format: functional
[27] = test system: Staphylococcus aureus; assay: Antibacterial activity against Methicillin-resistant Staphylococcus aureus ATCC 510019 incubated for 18 to 24 hrs by CLSI-based microbroth dilution method; format: functional; conditions: time 18-24 hrs
[28] = test system: Staphylococcus aureus; assay: Antibacterial activity against Methicillin-resistant Staphylococcus aureus ATCC 60202 incubated for 18 to 24 hrs by CLSI-based microbroth dilution method; format: functional; conditions: time 18-24 hrs
[29] = test system: Staphylococcus aureus; assay: Antibacterial activity against Methicillin-resistant Staphylococcus aureus ATCC 405055 incubated for 18 to 24 hrs by CLSI-based microbroth dilution method; format: functional; conditions: time 18-24 hrs
[30] = test system: Staphylococcus aureus; assay: Antibacterial activity against Methicillin-resistant Staphylococcus aureus ATCC 43300 incubated for 18 to 24 hrs by CLSI-based microbroth dilution method; format: functional; conditions: time 18-24 hrs
[31] = test system: Staphylococcus aureus; assay: Antibacterial activity against Methicillin-resistant Staphylococcus aureus ATCC 51599-2 incubated for 18 to 24 hrs by CLSI-based microbroth dilution method; format: functional; conditions: time 18-24 hrs
[32] = test system: Staphylococcus aureus; assay: Antibacterial activity against Methicillin-resistant Staphylococcus aureus ATCC 51033 incubated for 18 to 24 hrs by CLSI-based microbroth dilution method; format: functional; conditions: time 18-24 hrs
[33] = test system: Staphylococcus aureus; assay: Antibacterial activity against Methicillin-resistant Staphylococcus aureus ATCC 52351-2 incubated for 18 to 24 hrs by CLSI-based microbroth dilution method; format: functional; conditions: time 18-24 hrs
[34] = test system: Staphylococcus aureus; assay: Antibacterial activity against Methicillin-resistant Staphylococcus aureus ATCC 51345 incubated for 18 to 24 hrs by CLSI-based microbroth dilution method; format: functional; conditions: time 18-24 hrs
[35] = test system: Staphylococcus aureus; assay: Antibacterial activity against Methicillin-resistant Staphylococcus aureus ATCC 52056 incubated for 18 to 24 hrs by CLSI-based microbroth dilution method; format: functional; conditions: time 18-24 hrs
[36] = test system: Staphylococcus aureus; assay: Antibacterial activity against methicillin-resistant Staphylococcus aureus ATCC 33591 incubated for 18 hrs; format: functional
[37] = test system: Staphylococcus aureus; assay: Potency index, ratio of linezolid MIC to compound MIC for antibacterial activity against methicillin-resistant Staphylococcus aureus ATCC 33591; format: functional
[38] = test system: Staphylococcus aureus; assay: Antibacterial activity against methicillin-susceptible Staphylococcus aureus ATCC 25923 incubated for 18 hrs; format: functional

SMILES: NC[C@@H]1O[C@H](O[C@H]2[C@@H](O)[C@H](O[C@@H]3[C@@H](O)[C@H](N)C[C@H](N)[C@H]3O[C@H]3O[C@H](CN)[C@@H](O)[C@H](O)[C@H]3N)O[C@@H]2Cn2cc(COCCCCCCCCOCc3cn(C[C@H]4O[C@@H](O[C@@H]5[C@@H](O)[C@H](N)C[C@H](N)[C@H]5O[C@H]5O[C@H](CN)[C@@H](O)[C@H](O)[C@H]5N)[C@H](O)[C@@H]4O[C@H]4O[C@@H](CN)[C@@H](O)[C@H](O)[C@H]4N)nn3)nn2)[C@H](N)[C@@H](O)[C@@H]1O
- MIC [1]: 25 µg/mL (≈ 16.6 µM)
- MIC [2]: 25 µg/mL (≈ 16.6 µM)
- MIC [3]: 25 µg/mL (≈ 16.6 µM)
- MIC [4]: 25 µg/mL (≈ 16.6 µM)
- MIC [5]: 25 µg/mL (≈ 16.6 µM)

SMILES: O=C1CC2CN(c3ccc(N4C[C@H](Cn5ccnn5)OC4=O)cc3F)CC2C1 (stereo partly specified)
- MIC [6]: 3.12 µg/mL (≈ 8.1 µM)

SMILES: CC(C)C[C@@H](N)C(=O)N[C@H]1C(=O)N[C@@H](CC(N)=O)C(=O)N[C@H]2C(=O)N[C@H]3C(=O)N[C@H](C(=O)N[C@H](C(=O)O)c4cc(O)cc(O)c4-c4cc3ccc4O)[C@H](O)c3ccc(c(Cl)c3)Oc3cc2cc(c3O[C@@H]2O[C@H](CO)[C@@H](O)[C@H](O)[C@H]2O[C@H]2C[C@](C)(N)[C@H](O)[C@H](C)O2)Oc2ccc(cc2Cl)[C@H]1O
- MIC [7]: > 50 µg/mL
- MIC [8]: > 50 µg/mL

SMILES: CO/N=C1\C(=O)N(Cc2cn(CC(=O)N3CCC[C@H]4CN(c5c(F)cc6c(=O)c(C(=O)O)cn(C7CC7)c6c5OC)C[C@H]43)nn2)c2ccc(C)cc21
- MIC [9]: ≤ 0.03 µg/mL
- MIC [10]: ≤ 0.03 µg/mL
- MIC [11]: ≤ 0.03 µg/mL
- CC50 [12]: 32 µg/mL (≈ 44.9 µM)
- MIC [13]: ≤ 0.03 µg/mL
- MIC [14]: 1 µg/mL (≈ 1.4 µM)
- MIC [15]: ≤ 0.03 µg/mL
- MIC [16]: ≤ 0.03 µg/mL
- MIC [17]: ≤ 0.03 µg/mL
- MIC [18]: ≤ 0.03 µg/mL
- MIC [19]: ≤ 0.03 µg/mL
- MIC [20]: ≤ 0.03 µg/mL

SMILES: COc1cc(/C=C/c2ccc(OCc3cn(-c4ccc(C(=O)O)cc4)nn3)cc2)cc(OC)c1
- MBC [21]: 19.5 µg/mL (≈ 42.6 µM)
- MIC [22]: 1.2 µg/mL (≈ 2.62 µM)

SMILES: NC[C@H]1O[C@@H](O[C@@H](Cn2cc(CCCCCCCCCCOc3ccc(C(=O)c4ccccc4)cc3)nn2)[C@H]2O[C@@H](n3ccc(=O)[nH]c3=O)[C@H](O)[C@@H]2O)[C@H](O)[C@@H]1O.O=C(O)C(F)(F)F
- Ratio [23]: 1
- MIC [24]: 8 µg/mL

SMILES: CC(C)C[C@H](C(=O)N[C@@H]1Cc2ccc(c(Cl)c2)Oc2cc3cc(c2O[C@@H]2O[C@H](CO)[C@@H](O)[C@H](O)[C@H]2O[C@H]2C[C@](C)(NCCCCCCCc4ccccc4)[C@H](O)[C@H](C)O2)Oc2ccc(cc2Cl)[C@@H](O)[C@@H]2NC(=O)[C@H](NC(=O)[C@@H]3NC(=O)[C@H](CC(=O)O)NC1=O)c1ccc(O)c(c1)-c1c(O)cc(O)cc1[C@H](C(=O)O)NC2=O)n1cc(COCCOCCOCc2cn([C@H](CC(C)C)C(=O)N[C@@H]3Cc4ccc(c(Cl)c4)Oc4cc5cc(c4O[C@@H]4O[C@H](CO)[C@@H](O)[C@H](O)[C@H]4O[C@H]4C[C@](C)(NCCCCCCCc6ccccc6)[C@H](O)[C@H](C)O4)Oc4ccc(cc4Cl)[C@@H](O)[C@@H]4NC(=O)[C@H](NC(=O)[C@@H]5NC(=O)[C@H](CC(=O)O)NC3=O)c3ccc(O)c(c3)-c3c(O)cc(O)cc3[C@H](C(=O)O)NC4=O)nn2)nn1
- MIC [25]: 6.25 µg/mL (≈ 1.83 µM)
- MIC [7]: 25 µg/mL (≈ 7.3 µM)
- MIC [8]: 12.5 µg/mL (≈ 3.65 µM)
- MIC [26]: 12.5 µg/mL (≈ 3.65 µM)

SMILES: Cc1nc(C)c(COc2ccc(N3C[C@H](Cn4ccnn4)OC3=O)cc2F)nc1C
- MIC [27]: 4 µg/mL (≈ 9.7 µM)
- MIC [28]: 4 µg/mL (≈ 9.7 µM)
- MIC [29]: 4 µg/mL (≈ 9.7 µM)
- MIC [30]: 4 µg/mL (≈ 9.7 µM)
- MIC [31]: 4 µg/mL (≈ 9.7 µM)
- MIC [32]: 4 µg/mL (≈ 9.7 µM)
- MIC [33]: 4 µg/mL (≈ 9.7 µM)
- MIC [34]: 4 µg/mL (≈ 9.7 µM)
- MIC [35]: 4 µg/mL (≈ 9.7 µM)

SMILES: COc1c(N2C[C@@H]3CCCN(C(=O)Cn4cc(CN5C(=O)C(=O)c6ccccc65)nn4)[C@@H]3C2)c(F)cc2c(=O)c(C(=O)O)cn(C3CC3)c12
- MIC [9]: ≤ 0.03 µg/mL
- MIC [10]: ≤ 0.03 µg/mL
- MIC [11]: ≤ 0.03 µg/mL
- CC50 [12]: 64 µg/mL (≈ 95.6 µM)
- MIC [13]: ≤ 0.03 µg/mL
- MIC [14]: 1 µg/mL (≈ 1.49 µM)
- MIC [15]: ≤ 0.03 µg/mL
- MIC [16]: ≤ 0.03 µg/mL
- MIC [17]: ≤ 0.03 µg/mL
- MIC [18]: ≤ 0.03 µg/mL
- MIC [19]: ≤ 0.03 µg/mL
- MIC [20]: ≤ 0.03 µg/mL

SMILES: Cc1nc(C)c(COc2ccc(N3C[C@H](Cn4ccnn4)OC3=O)cc2)nc1C
- MIC [27]: 4 µg/mL (≈ 10.1 µM)
- MIC [28]: 4 µg/mL (≈ 10.1 µM)
- MIC [29]: 4 µg/mL (≈ 10.1 µM)
- MIC [30]: 4 µg/mL (≈ 10.1 µM)
- MIC [31]: 4 µg/mL (≈ 10.1 µM)
- MIC [32]: 4 µg/mL (≈ 10.1 µM)
- MIC [33]: 4 µg/mL (≈ 10.1 µM)
- MIC [34]: 4 µg/mL (≈ 10.1 µM)
- MIC [35]: 4 µg/mL (≈ 10.1 µM)

SMILES: CC(=O)NC[C@H]1CN(c2ccc(-n3cc(-c4ncccn4)nn3)c(F)c2)C(=O)O1
- MIC [36]: 0.5 µg/mL (≈ 1.26 µM)
- Ratio [37]: 4
- MIC [38]: 2 µg/mL (≈ 5.03 µM)
